In the supplement of paper PMC13207355:

How the values were obtained:
Conditions in all cases: exposure time: 72 h
FT3469 [1] = normal neural stem cell line; assay: phenotypic distance (Euclidean, principal components) from DMSO controls (arbitrary units); higher = stronger morphological change
E31 [2] = patient-derived glioblastoma stem cells of proneural subtype; assay: as above
E13 [3] = patient-derived glioblastoma stem cells of classical subtype; assay: as above
E34 [4] = patient-derived glioblastoma stem cells of proneural subtype; assay: as above
E21 [5] = patient-derived glioblastoma stem cells of mesenchymal subtype; assay: as above
E28 [6] = patient-derived glioblastoma stem cells of classical subtype; assay: as above
E57 [7] = patient-derived glioblastoma stem cells of mesenchymal subtype; assay: as above
FT3469 [8] = assay: surviving fraction (nuclei count normalised to DMSO); higher = more cells surviving (less toxic)
E31 [9] = assay: as above
E13 [10] = assay: as above
E34 [11] = assay: as above
E21 [12] = assay: as above
E28 [13] = assay: as above
E57 [14] = assay: as above
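For phenotypic distance (Euclidean, principal components) from DMSO controls in this document: cell Painting imaging in 384-well plates, CellProfiler features reduced to at least 20 principal components, Euclidean distance versus same-plate DMSO vehicle wells (0.1% v/v), median over six images per well.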
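For surviving fraction (nuclei count normalised to DMSO) in this document: nuclei counted by high-content imaging of Hoechst-stained cells in laminin-coated 384-well plates, relative to 0.1% DMSO vehicle wells, with staurosporine as cell-death control.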

Cc1ccc(/C=N/NC(=O)c2n[nH]c3c2CCCC3)cc1 [Suprafenacine]
Conditions | phenotypic distance | surviving fraction
E13 [3], 4.1 nM | 0.782 | –
E13 [3], 12.3 nM | 0.752 | –
E13 [3], 37 nM | 1.13 | –
E13 [3], 111.1 nM | 3.22 | –
E13 [3], 333.3 nM | 7.1 | –
E13 [3], 1000 nM | 7.86 | –
E13 [3], 3000 nM | 5.88 | –
E13 [10], 4.1 nM | – | 0.909
E13 [10], 12.3 nM | – | 0.853
E13 [10], 37 nM | – | 0.86
E13 [10], 111.1 nM | – | 0.536
E13 [10], 333.3 nM | – | 0.144
E13 [10], 1000 nM | – | 0.235
E13 [10], 3000 nM | – | 0.1
E21 [5], 4.1 nM | 0.928 | –
E21 [5], 12.3 nM | 0.73 | –
E21 [5], 37 nM | 1.18 | –
E21 [5], 111.1 nM | 4.45 | –
E21 [5], 333.3 nM | 9.28 | –
E21 [5], 1000 nM | 6.44 | –
E21 [5], 3000 nM | 9.19 | –
E21 [12], 4.1 nM | – | 0.963
E21 [12], 12.3 nM | – | 0.931
E21 [12], 37 nM | – | 0.982
E21 [12], 111.1 nM | – | 0.453
E21 [12], 333.3 nM | – | 0.0832
E21 [12], 1000 nM | – | 0.113
E21 [12], 3000 nM | – | 0.0664
E28 [6], 4.1 nM | 0.615 | –
E28 [6], 12.3 nM | 0.72 | –
E28 [6], 37 nM | 0.724 | –
E28 [6], 111.1 nM | 1.34 | –
E28 [6], 333.3 nM | 3.15 | –
E28 [6], 1000 nM | 4.1 | –
E28 [6], 3000 nM | 5.78 | –
E28 [13], 4.1 nM | – | 0.954
E28 [13], 12.3 nM | – | 0.896
E28 [13], 37 nM | – | 0.922
E28 [13], 111.1 nM | – | 0.742
E28 [13], 333.3 nM | – | 0.325
E28 [13], 1000 nM | – | 0.31
E28 [13], 3000 nM | – | 0.217
E31 [2], 4.1 nM | 0.29 | –
E31 [2], 12.3 nM | 1.07 | –
E31 [2], 37 nM | 1.19 | –
E31 [2], 111.1 nM | 2.14 | –
E31 [2], 333.3 nM | 6.25 | –
E31 [2], 1000 nM | 9.97 | –
E31 [2], 3000 nM | 12.3 | –
E31 [9], 4.1 nM | – | 0.95
E31 [9], 12.3 nM | – | 0.845
E31 [9], 37 nM | – | 0.709
E31 [9], 111.1 nM | – | 0.454
E31 [9], 333.3 nM | – | 0.0666
E31 [9], 1000 nM | – | 0.0444
E31 [9], 3000 nM | – | 0.0399
E34 [4], 4.1 nM | 0.442 | –
E34 [4], 12.3 nM | 1.02 | –
E34 [4], 37 nM | 0.706 | –
E34 [4], 111.1 nM | 1.69 | –
E34 [4], 333.3 nM | 5.34 | –
E34 [4], 1000 nM | 6.45 | –
E34 [4], 3000 nM | 8.8 | –
E34 [11], 4.1 nM | – | 1.01
E34 [11], 12.3 nM | – | 0.905
E34 [11], 37 nM | – | 0.938
E34 [11], 111.1 nM | – | 0.69
E34 [11], 333.3 nM | – | 0.409
E34 [11], 1000 nM | – | 0.375
E34 [11], 3000 nM | – | 0.237
E57 [7], 4.1 nM | 1.71 | –
E57 [7], 12.3 nM | 0.929 | –
E57 [7], 37 nM | 0.819 | –
E57 [7], 111.1 nM | 3.04 | –
E57 [7], 333.3 nM | 5.2 | –
E57 [7], 1000 nM | 5.41 | –
E57 [7], 3000 nM | 6.18 | –
E57 [14], 4.1 nM | – | 0.914
E57 [14], 12.3 nM | – | 0.922
E57 [14], 37 nM | – | 0.883
E57 [14], 111.1 nM | – | 0.685
E57 [14], 333.3 nM | – | 0.0911
E57 [14], 1000 nM | – | 0.0842
E57 [14], 3000 nM | – | 0.0511
FT3469 [1], 4.1 nM | 1.07 | –
FT3469 [1], 12.3 nM | 1.84 | –
FT3469 [1], 37 nM | 1.31 | –
FT3469 [1], 111.1 nM | 2.86 | –
FT3469 [1], 333.3 nM | 3.59 | –
FT3469 [1], 1000 nM | 3.7 | –
FT3469 [1], 3000 nM | 6.28 | –
FT3469 [8], 4.1 nM | – | 0.873
FT3469 [8], 12.3 nM | – | 0.804
FT3469 [8], 37 nM | – | 0.848
FT3469 [8], 111.1 nM | – | 0.492
FT3469 [8], 333.3 nM | – | 0.527
FT3469 [8], 1000 nM | – | 0.471
FT3469 [8], 3000 nM | – | 0.295

Cn1ncnc1[C@H]1c2n[nH]c(=O)c3cc(F)cc(c23)N[C@@H]1c1ccc(F)cc1 [Talazoparib]
Conditions | phenotypic distance | surviving fraction
E13 [3], 4.1 nM | 1.44 | –
E13 [3], 12.3 nM | 1.97 | –
E13 [3], 37 nM | 2.08 | –
E13 [3], 111.1 nM | 2.45 | –
E13 [3], 333.3 nM | 3.55 | –
E13 [3], 1000 nM | 4.7 | –
E13 [3], 3000 nM | 4.3 | –
E13 [10], 4.1 nM | – | 0.705
E13 [10], 12.3 nM | – | 0.673
E13 [10], 37 nM | – | 0.629
E13 [10], 111.1 nM | – | 0.593
E13 [10], 333.3 nM | – | 0.548
E13 [10], 1000 nM | – | 0.461
E13 [10], 3000 nM | – | 0.51
E21 [5], 4.1 nM | 4.97 | –
E21 [5], 12.3 nM | 1.69 | –
E21 [5], 37 nM | 2.19 | –
E21 [5], 111.1 nM | 2.75 | –
E21 [5], 333.3 nM | 3.08 | –
E21 [5], 1000 nM | 4.5 | –
E21 [5], 3000 nM | 5.21 | –
E21 [12], 4.1 nM | – | 0.755
E21 [12], 12.3 nM | – | 0.777
E21 [12], 37 nM | – | 0.709
E21 [12], 111.1 nM | – | 0.629
E21 [12], 333.3 nM | – | 0.565
E21 [12], 1000 nM | – | 0.403
E21 [12], 3000 nM | – | 0.292
E28 [6], 4.1 nM | 3.02 | –
E28 [6], 12.3 nM | 2.65 | –
E28 [6], 37 nM | 3.31 | –
E28 [6], 111.1 nM | 3.57 | –
E28 [6], 333.3 nM | 3.51 | –
E28 [6], 1000 nM | 3.37 | –
E28 [6], 3000 nM | 4.36 | –
E28 [13], 4.1 nM | – | 0.503
E28 [13], 12.3 nM | – | 0.47
E28 [13], 37 nM | – | 0.44
E28 [13], 111.1 nM | – | 0.418
E28 [13], 333.3 nM | – | 0.388
E28 [13], 1000 nM | – | 0.395
E28 [13], 3000 nM | – | 0.3
E31 [2], 4.1 nM | 1.5 | –
E31 [2], 12.3 nM | 1.58 | –
E31 [2], 37 nM | 1.6 | –
E31 [2], 111.1 nM | 2.21 | –
E31 [2], 333.3 nM | 2.86 | –
E31 [2], 1000 nM | 2.1 | –
E31 [2], 3000 nM | 2.79 | –
E31 [9], 4.1 nM | – | 0.59
E31 [9], 12.3 nM | – | 0.663
E31 [9], 37 nM | – | 0.623
E31 [9], 111.1 nM | – | 0.534
E31 [9], 333.3 nM | – | 0.342
E31 [9], 1000 nM | – | 0.265
E31 [9], 3000 nM | – | 0.207
E34 [4], 4.1 nM | 3.39 | –
E34 [4], 12.3 nM | 3.64 | –
E34 [4], 37 nM | 3.15 | –
E34 [4], 111.1 nM | 3.62 | –
E34 [4], 333.3 nM | 3.3 | –
E34 [4], 1000 nM | 2.98 | –
E34 [4], 3000 nM | 3.55 | –
E34 [11], 4.1 nM | – | 0.623
E34 [11], 12.3 nM | – | 0.671
E34 [11], 37 nM | – | 0.556
E34 [11], 111.1 nM | – | 0.594
E34 [11], 333.3 nM | – | 0.561
E34 [11], 1000 nM | – | 0.503
E34 [11], 3000 nM | – | 0.48
E57 [7], 4.1 nM | 1.57 | –
E57 [7], 12.3 nM | 1.96 | –
E57 [7], 37 nM | 1.65 | –
E57 [7], 111.1 nM | 2.9 | –
E57 [7], 333.3 nM | 3.02 | –
E57 [7], 1000 nM | 6.02 | –
E57 [7], 3000 nM | 6.4 | –
E57 [14], 4.1 nM | – | 0.807
E57 [14], 12.3 nM | – | 0.735
E57 [14], 37 nM | – | 0.797
E57 [14], 111.1 nM | – | 0.676
E57 [14], 333.3 nM | – | 0.605
E57 [14], 1000 nM | – | 0.313
E57 [14], 3000 nM | – | 0.25
FT3469 [1], 4.1 nM | 2.18 | –
FT3469 [1], 12.3 nM | 1.53 | –
FT3469 [1], 37 nM | 1.5 | –
FT3469 [1], 111.1 nM | 1.69 | –
FT3469 [1], 333.3 nM | 1.74 | –
FT3469 [1], 1000 nM | 1.99 | –
FT3469 [1], 3000 nM | 2.44 | –
FT3469 [8], 4.1 nM | – | 0.637
FT3469 [8], 12.3 nM | – | 0.778
FT3469 [8], 37 nM | – | 0.657
FT3469 [8], 111.1 nM | – | 0.727
FT3469 [8], 333.3 nM | – | 0.648
FT3469 [8], 1000 nM | – | 0.636
FT3469 [8], 3000 nM | – | 0.569
